The values that follow come from EP4417602A1, “SUBSTITUTED PYRAZOLE CARBOXAMIDES, SALTS THEREOF AND THEIR USE AS HERBICIDALLY ACTIVE SUBSTANCES” (Bayer AG, priority 2023, dated 2024).

In data set [1] the test system is LOLRI. Briefly: B. Herbicidal post-emergence action on harmful plants (Tables B). It counts as in vivo, Lolium rigidum. The note with it: application rate 1280 g/ha; Table B3. As for the experimental part: Seeds of mono- and dicotyledonous weed plants were placed in plastic pots in sandy loam soil (doubly sown with in each case one species of mono- or dicotyledonous weed plants per pot), covered with soil and cultivated in a greenhouse under controlled growth conditions. 2 to 3 weeks after sowing, the test plants were treated at the one-leaf stage. The compounds of the invention, formulated in the form of wettable powders (WP) or as emulsion concentrates (EC), were applied onto the green parts of the plants as aqueous suspension or emulsion with addition of 0.5% additive at a water application rate of 600 liters per hectare (converted). After the test plants had been kept in the greenhouse under optimum growth conditions for about 3 weeks, the activity of the preparations was rated visually in comparison to untreated controls. For example, 100% activity = the plants have died, 0% activity = like control plants. Tables B1 to B12, below, show the effects of selected compounds of the general formula (I) according to table 1 on various harmful plants and an application rate corresponding to 1280 g/ha or below obtained by the experimental procedure mentioned above. Table B1a: post-emergence activity at 1280g/ha against ABUTH in %

The subject of another data set is POLCO. Briefly: C. Herbicidal pre-emergence action, weed and crop plants (Tables C). It counts as in vivo, Polygonum convolvulus. As to conditions: application rate 320 g/ha; Table C9. The text has this: (§1) Seeds of mono- and dicotyledonous weed plants and crop plants were sown, in plastic or organic planting pots, in sandy loam and covered with soil. The compounds according to the invention, formulated in the form of wettable powders (WP) or as emulsifiable concentrates (EC), were applied to the surface of the covering soil as aqueous suspension or emulsion, with the addition of 0.5% of an additive, at an application rate of 6001 of water/ha (converted). Following treatment, the pots were placed in a greenhouse and kept under optimum growth conditions for the test plants. The visual grading of the damage to the test plants was carried out after ca. 3 weeks in comparison to untreated controls (herbicidal effect in percent (%): 100% effect = plants have died off, 0% effect = as control plants). Tables C1 to C12 below show the effects of selected compounds of the general formula (I) according to table 1 on various harmful plants and an application rate corresponding to 320 g/ha or below obtained by the experimental procedure mentioned above. Table C1: pre-emergence activity at 320g/ha against KCHSC in %

Another data set relates to AMARE. Nature of the data set: B. Herbicidal post-emergence action on harmful plants (Tables B). Type of data set: in vivo, Amaranthus retroflexus. As to conditions: application rate 1280 g/ha; Table B8. In short, it runs like this: (§2)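 Greenhouse weeds grown in sandy loam were sprayed post-emergence at the one-leaf stage, 2-3 weeks after sowing. Compounds were applied as WP or EC in water with 0.5% additive at 600 L/ha, at 1280 g/ha or below. Visual damage was rated after about 3 weeks versus untreated plants (0-100%).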

A further data set has as its system AVEFA. Nature of the data set: C. Herbicidal pre-emergence action, weed and crop plants (Tables C). Type of data set: in vivo, Avena fatua. The note with it: application rate 320 g/ha; Table C4.
Text: as §1

The subject of a further data set is MATIN. Briefly: B. Herbicidal post-emergence action on harmful plants (Tables B). It counts as in vivo, Matricaria inodora. As to conditions: application rate 1280 g/ha; Table B4a. In short, it runs like this:
as §2

In data set [2] the test system is LOLRI. Nature of the data set: E. Herbicidal post-emergence action, weed and crop plants (Tables E). Type of data set: in vivo, Lolium rigidum. The note with it: application rate 320 g/ha, visual assessment after ca. 3 weeks. From the text: (§3) Seeds of mono- and dicotyledonous weed plants and crop plants were sown, in plastic or organic planting pots, in sandy loam, covered with soil and grown in a greenhouse under controlled growth conditions. 2 to 3 weeks after sowing, the test plants were sprayed in the single-leaf stage. The compounds according to the invention, formulated in form of wettable powders (WP) or as emulsifiable concentrates (EC), were sprayed onto the green plant parts as aqueous suspension or emulsion, with the addition of 0.5% of an additive, at an application rate of 6001 of water/ha (converted). The test plants were placed in the greenhouse for ca. 3 weeks under optimum growth conditions, and then the effect of the preparations was assessed visually in comparison with untreated controls (herbicidal effect in percent (%): 100% effect = plants have died off, 0% effect = as control plants). Tables E1 to E7 below show the effects of selected compounds of the general formula (I) according to table 1 on various harmful plants and an application rate corresponding to 320 g/ha or below obtained by the experimental procedure mentioned above. Table E1: post-emergence activity at 320g/ha against ALOMY in %

For a further data set, the system named is ORYZA. Briefly: D. Pre-emergence effects on crop plants (Tables D). Type of data set: in vivo, Oryza sativa. The note with it: crop plant. From the text: Seeds of mono- and dicotyledonous weed plants and crop plants were sown, in plastic or organic planting pots, in sandy loam and covered with soil. The compounds according to the invention, formulated in the form of wettable powders (WP) or as emulsifiable concentrates (EC), were applied to the surface of the covering soil as aqueous suspension or emulsion, with the addition of 0.5% of an additive, at an application rate of 6001 of water/ha (converted).
Following treatment, the pots were placed in a greenhouse and kept under optimum growth conditions for the test plants. The visual grading of the damage to the test plants was carried out after ca. 3 weeks in comparison to untreated controls (herbicidal effect in percent (%): 100% effect = plants have died off, 0% effect = as control plants).
Tables D1 to D5 below show the effects of various compounds of the general formula (I) according to Table 1 on various crop plants and an application rate corresponding to 320 g/ha or below obtained by the experimental procedure mentioned above in Biological Examples, Section C. Table D1a: pre-emergence activity at 320g/ha against ZEAMX in %

The subject of the next data set is ABUTH. Nature of the data set: B. Herbicidal post-emergence action on harmful plants (Tables B). Type of data set: in vivo, Abutilon theophrasti. In short, it runs like this:
as §2

Data set [3] has as its system VERPE. Briefly: E. Herbicidal post-emergence action, weed and crop plants (Tables E). The note with it: application rate 320 g/ha, visual assessment after ca. 3 weeks. It counts as in vivo, Veronica persica.
Text: as §3

Data set [4] relates to VERPE. Nature of the data set: A. Herbicidal pre-emergence action on harmful plants (Tables A). As to conditions: application rate 1280 g/ha; Table A11. Type of data set: in vivo, Veronica persica. In short, it runs like this: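 Values are visual percent damage relative to untreated controls, scored ca. 3 weeks after the compound was sprayed on the covering soil of sown pots (sandy loam) at rates up to 1280 g/ha, formulated as WP or EC with 0.5% additive.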

The mark [5] stands for this setting: application rate 80 g/ha, Table D3b.
Setting [6] is: application rate 320 g/ha, Table D3a.
Where [7] appears, read: application rate 320 g/ha, treated at the one-leaf stage, rated visually after about 3 weeks vs untreated controls, 100% = the plants have died, 0% = like control plants.
Setting [8] is: application rate 1280 g/ha, Table B1a.

Each structure is given as a SMILES string.

Regarding `C=C(c1ccccc1F)C1CCCN1C(=O)c1cn(C)nc1COC` (racemic) [Example I-023], the “post-emergence activity against LOLRI” value in the data set on LOLRI [1] amounted to 90%. The “pre-emergence activity against POLCO” value in the data set with POLCO is 80%.

As to `COCc1nn(C)cc1C(=O)N1CCCC1Cc1ccccc1F` (racemic) [Example I-002], the “post-emergence activity against AMARE” value in the data set with AMARE worked out at 90%. Besides, the “pre-emergence activity against AVEFA” value in the data set with AVEFA worked out at 80%.

Consider `COCc1c(C(=O)N2CCCC2Cc2ccccc2Cl)cnn1C` (racemic) [Example I-170], for which, in the data set with LOLRI [1], the “post-emergence activity against LOLRI” value is on record as 90%. For the same compound, the “post-emergence activity against MATIN” value with MATIN stood at 90%. In addition, in the data set on LOLRI [2], the “post-emergence activity against LOLRI in %” value was determined as 80%.

Regarding `Cn1cc(C(=O)N2CCCC2Cc2ccc(F)cc2F)c(COc2ccccc2)n1` (racemic) [Example I-008], the “pre-emergence activity against ORYZA” value in the data set on ORYZA (setting [5]) and with ORYZA (setting [6]) was 0% in each case.

With `COCc1nn(C)cc1C(=O)N1CCCC1Cc1ccccc1F` (single isomer, unassigned) [Example I-003], the “post-emergence activity against ABUTH” value with ABUTH (setting [7]) and with ABUTH (setting [8]) was 90% each time. Further, the “post-emergence activity against VERPE in %” value with VERPE [3] is given as 80%. Also, in the data set on AVEFA, the “pre-emergence activity against AVEFA” value turned out to be 90%. Also, in the data set with LOLRI [2], the “post-emergence activity against LOLRI in %” value was found to be 80%.

As for `Cn1cc(C(=O)N2CCCC2Cc2ccccc2F)c(COc2ccccc2)n1` (racemic) [Example I-006], the “post-emergence activity against ABUTH” value with ABUTH (setting [7]) and in the data set with ABUTH (setting [8]) was 90% each time. The “post-emergence activity against AMARE” value with AMARE was 90%. Moreover, the “pre-emergence activity against ORYZA” value with ORYZA (setting [5]) and in the data set on ORYZA (setting [6]) was 0% in each case. For the same compound, the “pre-emergence activity against VERPE” value in the data set with VERPE [4] came out at 100%.

Take `COCc1c(C(=O)N2CCCC2Cc2ccccc2F)cnn1C` (single isomer, unassigned) [Example I-157]: the “pre-emergence activity against VERPE” value in the data set on VERPE [4] is on record as 90%.
